Results: ChEMBL document CHEMBL1201862, “PubChem BioAssay data set” (2004)
The source made the active and inactive calls.

What was measured:
[1] = target: T1, G-protein coupled receptor 55 (Homo sapiens, UniProt Q9Y2T6); experiment: GPR55 antagonists blocking LPI-driven arrestin recruitment, primary screen, imaging, U2OS, beta-arrestin-GFP, LPI agonist (AID 2013); assay type: functional;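 note: antagonist potency measured as reduced agonist-driven arrestin aggregation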
[2] = target: T1, G-protein coupled receptor 55; experiment: GPR55 antagonist potency of analogs, SAR follow-up, imaging, U2OS, beta-arrestin-GFP, LPI agonist, set 2 (AID 2820); assay type: functional
[3] = target: T2, G-protein coupled receptor 35 (Homo sapiens, UniProt Q9HC97); experiment: SAR analysis of Antagonists of the GPR35 Receptor using an Image-Based Assay - Set 3. [Related pubchem assays (depositor defined):AID2013, AID2026]; assay type: functional
T2 sequence (Q9HC97 whole entry): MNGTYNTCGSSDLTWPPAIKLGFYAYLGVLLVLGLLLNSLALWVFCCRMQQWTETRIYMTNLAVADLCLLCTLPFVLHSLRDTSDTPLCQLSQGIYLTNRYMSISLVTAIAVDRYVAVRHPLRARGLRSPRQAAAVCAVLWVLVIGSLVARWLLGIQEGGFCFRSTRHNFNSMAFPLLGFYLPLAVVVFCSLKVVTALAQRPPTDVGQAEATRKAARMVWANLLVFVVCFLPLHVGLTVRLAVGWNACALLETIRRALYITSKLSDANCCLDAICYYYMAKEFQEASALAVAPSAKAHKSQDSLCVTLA

[4] = target: T3, Cannabinoid receptor 2 (Homo sapiens, UniProt P34972); experiment: SAR analysis of agonists of the Cannabinoid Receptor 2 using an Image-Based Assay. [Related pubchem assays (depositor defined):AID2013, AID2026]; assay type: functional
T3 sequence (P34972 whole entry): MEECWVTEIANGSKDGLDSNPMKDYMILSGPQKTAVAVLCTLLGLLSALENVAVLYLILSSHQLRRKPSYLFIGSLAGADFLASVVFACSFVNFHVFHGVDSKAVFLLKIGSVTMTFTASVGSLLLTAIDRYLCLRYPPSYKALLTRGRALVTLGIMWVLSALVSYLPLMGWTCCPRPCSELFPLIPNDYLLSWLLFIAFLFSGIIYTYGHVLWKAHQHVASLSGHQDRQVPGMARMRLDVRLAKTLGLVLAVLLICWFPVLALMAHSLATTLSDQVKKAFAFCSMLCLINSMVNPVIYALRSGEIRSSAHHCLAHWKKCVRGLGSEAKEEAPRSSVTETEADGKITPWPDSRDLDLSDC

[5] = target: T4, Cannabinoid receptor 1 (Homo sapiens, UniProt P21554); experiment: SAR analysis of agonists of the Cannabinoid Receptor 1 using an Image-Based Assay - Set 2. [Related pubchem assays (depositor defined):AID2013, AID2026]; assay type: functional
T4 sequence (P21554 whole entry): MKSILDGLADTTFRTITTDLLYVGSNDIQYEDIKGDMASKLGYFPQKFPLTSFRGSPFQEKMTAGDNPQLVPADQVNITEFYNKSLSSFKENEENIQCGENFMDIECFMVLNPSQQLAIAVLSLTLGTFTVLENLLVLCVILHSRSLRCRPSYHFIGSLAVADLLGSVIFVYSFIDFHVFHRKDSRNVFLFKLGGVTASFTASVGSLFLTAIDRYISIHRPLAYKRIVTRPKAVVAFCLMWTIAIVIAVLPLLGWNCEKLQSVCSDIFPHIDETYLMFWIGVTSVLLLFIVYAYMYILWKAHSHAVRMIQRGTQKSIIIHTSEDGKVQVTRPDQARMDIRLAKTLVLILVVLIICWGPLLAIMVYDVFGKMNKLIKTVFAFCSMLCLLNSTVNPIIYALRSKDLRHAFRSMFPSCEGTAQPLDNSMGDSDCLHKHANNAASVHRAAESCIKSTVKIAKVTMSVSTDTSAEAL

[6] = target: T3, Cannabinoid receptor 2; experiment: SAR analysis of antagonists of the Cannabinoid Receptor 2 using an Image-Based Assay. [Related pubchem assays (depositor defined):AID2013, AID2026]; assay type: functional
[7] = target: Cytochrome P450 2C19 (Homo sapiens, UniProt P33261); experiment: Cytochrome panel assay with activity outcomes. Panel member name: p450-cyp2c19 Compounds with AC50 equal or less than 10 uM are considered active; assay type: functional; details: read-out: AC50
Sequence of Cytochrome P450 2C19 (P33261 whole entry): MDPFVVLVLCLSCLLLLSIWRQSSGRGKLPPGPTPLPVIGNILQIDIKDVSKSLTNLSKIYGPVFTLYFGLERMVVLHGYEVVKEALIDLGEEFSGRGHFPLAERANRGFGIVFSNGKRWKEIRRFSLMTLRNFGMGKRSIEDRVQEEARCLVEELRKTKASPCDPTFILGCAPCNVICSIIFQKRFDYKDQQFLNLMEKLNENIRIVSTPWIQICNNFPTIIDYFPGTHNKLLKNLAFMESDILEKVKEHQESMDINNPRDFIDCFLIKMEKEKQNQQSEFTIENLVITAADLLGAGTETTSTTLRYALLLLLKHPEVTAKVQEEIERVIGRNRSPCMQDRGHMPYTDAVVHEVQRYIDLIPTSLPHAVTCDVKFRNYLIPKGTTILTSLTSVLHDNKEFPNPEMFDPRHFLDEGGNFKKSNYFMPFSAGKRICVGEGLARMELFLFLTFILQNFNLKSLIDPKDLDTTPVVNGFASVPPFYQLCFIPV

[8] = target: T4, Cannabinoid receptor 1; experiment: SAR analysis of antagonists of the Cannabinoid Receptor 1 using an Image-Based Assay - Set 2. [Related pubchem assays (depositor defined):AID2013, AID2026]; assay type: functional
[9] = target: Cytochrome P450 3A4 (Homo sapiens, UniProt P08684);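 note: CYP3A4 tested as one member of a cytochrome P450 panel screen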
Sequence of Cytochrome P450 3A4 (P08684 whole entry): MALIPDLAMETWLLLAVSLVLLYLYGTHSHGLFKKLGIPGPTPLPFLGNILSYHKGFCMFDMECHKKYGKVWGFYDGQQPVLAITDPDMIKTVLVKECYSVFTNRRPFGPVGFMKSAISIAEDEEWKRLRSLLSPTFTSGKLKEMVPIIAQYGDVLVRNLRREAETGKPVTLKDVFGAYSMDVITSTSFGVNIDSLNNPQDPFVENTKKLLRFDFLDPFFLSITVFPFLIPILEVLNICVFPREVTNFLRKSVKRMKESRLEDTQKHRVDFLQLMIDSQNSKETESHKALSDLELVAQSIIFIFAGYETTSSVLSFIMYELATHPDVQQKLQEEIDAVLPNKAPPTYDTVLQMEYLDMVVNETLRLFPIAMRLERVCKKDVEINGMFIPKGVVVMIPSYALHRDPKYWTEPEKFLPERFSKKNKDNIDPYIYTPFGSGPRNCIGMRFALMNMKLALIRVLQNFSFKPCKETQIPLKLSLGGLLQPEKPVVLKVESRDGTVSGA

[10] = target: T2, G-protein coupled receptor 35; experiment: SAR analysis of Agonists of the GPR35 Receptor using an Image-Based Assay - Set 2. [Related pubchem assays (depositor defined):AID2013, AID2026]; assay type: functional
[11] = HEK293T cell cytotoxicity, dose response, cytotoxicity control for HIV Vif inhibitor project, cherry-picks (AID 652208); assay type: functional, cell-based
[12] = target: T5, Replicative DNA helicase DnaB (Mycobacterium tuberculosis, UniProt P9WMR3); experiment: DnaB intein splicing inhibitors, dose response, biochemical, cell-free fluorescence (AID 449749); assay type: functional
T5 sequence (P9WMR3 whole entry): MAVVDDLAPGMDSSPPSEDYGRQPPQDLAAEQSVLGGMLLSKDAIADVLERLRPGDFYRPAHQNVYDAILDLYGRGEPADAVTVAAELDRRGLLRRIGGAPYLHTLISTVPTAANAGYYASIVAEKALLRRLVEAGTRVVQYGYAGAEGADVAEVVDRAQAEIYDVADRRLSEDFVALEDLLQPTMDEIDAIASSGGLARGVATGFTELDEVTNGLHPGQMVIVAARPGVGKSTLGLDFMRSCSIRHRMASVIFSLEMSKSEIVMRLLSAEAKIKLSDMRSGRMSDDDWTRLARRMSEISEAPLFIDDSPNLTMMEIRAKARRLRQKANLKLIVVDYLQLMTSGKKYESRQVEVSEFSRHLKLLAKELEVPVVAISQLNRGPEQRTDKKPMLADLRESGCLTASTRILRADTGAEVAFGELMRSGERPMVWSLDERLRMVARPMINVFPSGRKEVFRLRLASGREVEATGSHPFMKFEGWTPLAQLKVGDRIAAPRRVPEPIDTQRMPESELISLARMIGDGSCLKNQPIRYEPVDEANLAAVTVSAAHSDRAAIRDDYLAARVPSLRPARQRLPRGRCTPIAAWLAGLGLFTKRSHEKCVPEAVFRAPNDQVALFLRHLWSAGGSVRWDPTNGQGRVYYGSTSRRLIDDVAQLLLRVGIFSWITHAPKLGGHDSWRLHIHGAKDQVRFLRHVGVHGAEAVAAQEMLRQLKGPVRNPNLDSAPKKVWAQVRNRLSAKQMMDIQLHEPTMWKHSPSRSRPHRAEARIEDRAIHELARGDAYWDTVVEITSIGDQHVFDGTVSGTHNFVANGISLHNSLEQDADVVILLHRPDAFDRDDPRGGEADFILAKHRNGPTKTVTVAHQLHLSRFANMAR

[13] = target: T6, Protein RecA (Mycobacterium tuberculosis, UniProt P9WHJ3); experiment: Fluorescence Cell-Free Homogeneous Dose Retest to Identify Inhibitors of RecA-Intein Splicing Activity. [Related pubchem assays (depositor defined):AID2097, AID2223, AID489010, AID492950]; assay type: functional
T6 sequence (P9WHJ3 whole entry): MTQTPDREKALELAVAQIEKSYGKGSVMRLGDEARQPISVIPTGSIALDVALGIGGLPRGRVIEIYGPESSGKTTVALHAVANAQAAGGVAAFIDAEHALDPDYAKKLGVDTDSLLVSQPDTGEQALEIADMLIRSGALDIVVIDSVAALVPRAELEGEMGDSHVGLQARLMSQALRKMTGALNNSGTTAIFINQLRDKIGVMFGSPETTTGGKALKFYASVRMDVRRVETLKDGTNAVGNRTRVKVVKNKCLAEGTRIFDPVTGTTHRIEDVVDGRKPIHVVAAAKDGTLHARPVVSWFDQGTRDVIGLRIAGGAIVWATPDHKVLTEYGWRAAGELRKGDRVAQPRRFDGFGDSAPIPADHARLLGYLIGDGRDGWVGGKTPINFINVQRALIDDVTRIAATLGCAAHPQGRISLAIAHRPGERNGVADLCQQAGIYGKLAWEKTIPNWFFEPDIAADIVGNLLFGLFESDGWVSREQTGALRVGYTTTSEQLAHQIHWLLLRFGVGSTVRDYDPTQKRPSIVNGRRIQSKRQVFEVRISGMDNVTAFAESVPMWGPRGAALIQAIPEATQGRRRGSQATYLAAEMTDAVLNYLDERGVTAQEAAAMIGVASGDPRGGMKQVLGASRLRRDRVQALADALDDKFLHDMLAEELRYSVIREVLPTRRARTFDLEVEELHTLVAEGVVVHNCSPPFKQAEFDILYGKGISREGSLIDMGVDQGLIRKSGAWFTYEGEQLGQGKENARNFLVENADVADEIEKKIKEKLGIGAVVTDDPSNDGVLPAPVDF

[14] = Luminescent dose response cell-based high throughput screening assay for inhibitors of the Janus kinase 2 mutant JAK2V617F. [Related pubchem assays: 1446 (Primary screen.), 1521 (Confirmation assay.), 1486 (Counter screen.)]; assay type: functional
[15] = Intein inhibitors as potential Tuberculosis drugs, a cytotoxicity screen. [Related pubchem assays (depositor defined):AID2221, AID2223, AID434968, AID435010, AID449749, AID449750, AID489010]; assay type: functional
[16] = system: HEK293; experiment: inhibitors of LMP1-driven NF-kB reporter, dose response, cell-based, HEK293, luciferase, cherry-pick (AID 588343); assay type: functional; details: Homo sapiens
[17] = target: Beta-2 adrenergic receptor (Homo sapiens, UniProt P07550); experiment: beta2AR agonists driving receptor internalization, dose response, cell-based, FAP fluorogen, flow cytometry, cherry pick 1 (AID 588763); assay type: functional
Sequence of Beta-2 adrenergic receptor (P07550 whole entry): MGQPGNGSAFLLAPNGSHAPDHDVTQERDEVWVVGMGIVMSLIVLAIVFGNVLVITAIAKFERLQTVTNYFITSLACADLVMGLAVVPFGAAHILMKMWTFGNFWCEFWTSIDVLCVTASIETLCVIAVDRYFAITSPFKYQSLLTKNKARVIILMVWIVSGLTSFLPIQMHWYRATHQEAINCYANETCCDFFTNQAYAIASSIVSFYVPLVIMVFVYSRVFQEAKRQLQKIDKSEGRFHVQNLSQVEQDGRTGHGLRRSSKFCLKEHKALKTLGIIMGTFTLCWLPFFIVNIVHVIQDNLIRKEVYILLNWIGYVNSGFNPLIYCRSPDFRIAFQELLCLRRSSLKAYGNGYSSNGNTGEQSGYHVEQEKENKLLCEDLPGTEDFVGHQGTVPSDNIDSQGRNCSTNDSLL

[18] = target: T7, Coagulation factor XII (Homo sapiens, UniProt P00748); experiment: Factor XIIa Dose Response Confirmation from Single Well HTS. [Related pubchem assays (depositor defined):AID701]; assay type: functional
T7 sequence (P00748 whole entry): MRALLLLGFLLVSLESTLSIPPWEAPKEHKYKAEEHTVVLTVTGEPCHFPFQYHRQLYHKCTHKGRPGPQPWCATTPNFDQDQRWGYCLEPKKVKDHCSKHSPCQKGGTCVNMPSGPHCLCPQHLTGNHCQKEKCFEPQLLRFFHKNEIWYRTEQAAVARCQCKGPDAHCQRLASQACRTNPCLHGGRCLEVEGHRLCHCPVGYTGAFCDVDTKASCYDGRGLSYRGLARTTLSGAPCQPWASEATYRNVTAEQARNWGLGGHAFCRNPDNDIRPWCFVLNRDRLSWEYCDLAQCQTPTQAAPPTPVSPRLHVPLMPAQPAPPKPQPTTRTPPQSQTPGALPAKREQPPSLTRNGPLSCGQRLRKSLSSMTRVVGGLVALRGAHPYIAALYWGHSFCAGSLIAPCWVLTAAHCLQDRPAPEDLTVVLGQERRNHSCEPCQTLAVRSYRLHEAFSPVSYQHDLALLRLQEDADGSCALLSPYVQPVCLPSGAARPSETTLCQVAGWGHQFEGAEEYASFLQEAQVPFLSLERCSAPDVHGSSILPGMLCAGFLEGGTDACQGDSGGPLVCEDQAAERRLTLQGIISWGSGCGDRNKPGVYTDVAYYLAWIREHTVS

[19] = target: T2, G-protein coupled receptor 35; experiment: SAR analysis of Agonists of the GPR35 Receptor using an Image-Based Assay - Set 4. [Related pubchem assays (depositor defined):AID2013, AID2026]; assay type: functional
[20] = target: T4, Cannabinoid receptor 1; experiment: SAR analysis of agonists of the Cannabinoid Receptor 1 using an Image-Based Assay - Set 4. [Related pubchem assays (depositor defined):AID2013, AID2026]; assay type: functional
[21] = target: T3, Cannabinoid receptor 2; experiment: SAR analysis of antagonists of the Cannabinoid Receptor 2 using an Image-Based Assay - Set 3. [Related pubchem assays (depositor defined):AID2013, AID2026]; assay type: functional
[22] = target: T2, G-protein coupled receptor 35; experiment: SAR analysis of Antagonists of the GPR35 Receptor using an Image-Based Assay - Set 6. [Related pubchem assays (depositor defined):AID2013, AID2026]; assay type: functional
[23] = target: T1, G-protein coupled receptor 55; experiment: SAR Analysis of Selective Antagonists of GPR55 using an Image-Based Assay - Set 4. [Related pubchem assays (depositor defined):AID2013, AID2026]; assay type: functional
[24] = target: T4, Cannabinoid receptor 1; experiment: SAR analysis of antagonists of the Cannabinoid Receptor 1 using an Image-Based Assay - Set 4. [Related pubchem assays (depositor defined):AID2013, AID2026]; assay type: functional
[25] = target: T3, Cannabinoid receptor 2; experiment: SAR analysis of agonists of the Cannabinoid Receptor 2 using an Image-Based Assay - Set 3. [Related pubchem assays (depositor defined):AID2013, AID2026]; assay type: functional
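Throughout, for CC50: cells exposed to compound for 72 hours before luminescence readout.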

T1 sequence (Q9Y2T6 whole entry): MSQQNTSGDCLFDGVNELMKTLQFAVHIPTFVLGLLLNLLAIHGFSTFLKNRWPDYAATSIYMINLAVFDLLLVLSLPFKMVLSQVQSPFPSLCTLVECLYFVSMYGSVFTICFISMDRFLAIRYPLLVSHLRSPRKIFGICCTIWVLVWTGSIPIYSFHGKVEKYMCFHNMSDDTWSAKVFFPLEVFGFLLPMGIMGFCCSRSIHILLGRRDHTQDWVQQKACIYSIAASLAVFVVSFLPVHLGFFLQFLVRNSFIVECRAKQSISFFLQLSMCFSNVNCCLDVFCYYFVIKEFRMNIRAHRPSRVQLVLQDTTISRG

With `Cc1cc(C)c2nc(-c3ccccn3)cc(C(=O)Nc3ccc(S(=O)(=O)Nc4cc(C)on4)cc3)c2c1` the IC50 [1] was 1.82 µM (active), the IC50 [2] was 0.709 µM (active) and the IC50 [3] was > 32 µM (inactive). For the same compound, the EC50 [4] was > 32 µM (inactive), the EC50 [5] was > 32 µM (inactive) and the IC50 [6] was > 32 µM (inactive). The AC50 [7] was 17.8 µM (inconclusive), the IC50 [8] was > 32 µM (inactive) and the AC50 [9] was 17.8 µM (inconclusive). The EC50 [10] was > 32 µM (inactive).
For `Clc1ccc(-n2nnnc2Sc2ncnc3sccc23)cc1`, the AC50 [11] was 10.8 µM (active), the AC50 [12] was 3.76 µM (active) and the EC50 [13] was 1.03 µM (active). For the same compound, the IC50 [14] was 0.787 µM (active), the CC50 [15] was 9.7 µM (active) and the AC50 [16] was 10.7 µM (active). The EC50 [17] was 10.5 µM (inactive).
With `N#Cc1ccc(NC(=O)COC(=O)CNC(=O)C2CCCCC2)cc1` the IC50 [18] was > 50 µM (inactive).
With `Cc1nnc(-c2cccc3ccccc23)c2cn(-c3cccc(Br)c3)nc12` the EC50 [19] was > 32 µM (inactive), the EC50 [20] was > 32 µM (inactive) and the IC50 [21] was 3.87 µM (active). For the same compound, the IC50 [22] was 28.2 µM (inactive), the IC50 [23] was 5.27 µM (active) and the IC50 [24] was 0.661 µM (active). The EC50 [25] was > 32 µM (inactive).
